According to ChEMBL document CHEMBL4000251, “Discovery of 4-chloro-2-(2,4-dichloro-6-methylphenoxy)-1-methyl-7-(pentan-3-yl)-1H-benzimidazole, a novel CRF1 receptor antagonist” (Bioorg Med Chem, 2017):

Tests used:
[1] = AUC in rat at 1 mg/kg, po; format: ADME, organism-based; details: in vivo
[2] = Oral bioavailability in rat at 1 mg/kg; format: ADME, organism-based; details: in vivo

Q: For `CCC(CC)c1ccc(Cl)c2nc(Oc3c(C)cc(Cl)cc3Cl)n(C)c12`, which AUC [1] is on record?
A: 94.6 ng·h/mL

Q: And the bioavailability [2]?
A: 30.8%
